According to patent publication US6613308B2, “Pulmonary delivery in treating disorders of the central nervous system” (Advanced Inhalation Research, Inc., priority 2000, dated 2003):

What was measured:
migraine = conditions: cited from earlier work
[1] = cited from earlier work
[2] = cited from earlier work; remark: listed apart in the source
in vivo [3] = conditions: rat; for bioavailability / bioavailability at 15 min / bioavailability at 60 min: 2 mg
Experimental: Determinations of plasma levels of L-Dopa were made following IV injection, oral gavage, or insufflation into the lungs. Carbidopa generally is administered to ensure that peripheral decarboxylase activity is completely shut down. In this example, animals received an intraperitoneal (IP) injection of the peripheral decarboxylase inhibitor carbidopa (200 mg/kg) 1 hour prior to administration of L-Dopa. Under ketamine anesthesia, the animals were divided into 3 groups. In the first group of animals, L-Dopa (2 mg) was suspended in saline containing 1% methylcellulose and 1% ascorbic acid and given via oral gavage. In the second group, an insufflation technique was used for pulmonary administration of particles including L-Dopa (20% loading density). A laryngoscope was used to visualize the rat's epiglottis and the blunt-tip insufflation device (PennCentury Insufflation powder delivery device) was inserted into the airway. A bolus of air (3 cc), from an attached syringe, was used to delivery the pre-loaded powder from the chamber of the device into the animal's lungs. A total of 10 mg of powder (2 mg L-Dopa) was delivered. In the third group, a previously-placed femoral cannula was used to delivery a bolus (2-3 second) of L-Dopa (2 mg). Blood samples (200 μL) were withdrawn from each animal using the femoral cannula at the following timepoints: 0 (immediately prior to L-Dopa administration), 2, 5, 15, 30, 60, 120, and 240 minutes following L-Dopa administration. All samples were processed for L-Dopa determinations using HPLC.
Bioavailability was estimated by performing area under the curve (AUC) calculations.

[4] = tested on: rat model of Parkinson's disease (unilateral 6-OHDA lesion); assay: Placing task; format: in vivo
[5] = tested on: rat model of Parkinson's disease (unilateral 6-OHDA lesion); assay: Bracing task; format: in vivo
[6] = tested on: rat model of Parkinson's disease (unilateral 6-OHDA lesion); assay: Akinesia task; format: in vivo
[7] = tested on: rat model of Parkinson's disease (unilateral 6-OHDA lesion); assay: Rotation test; format: in vivo
Experimental: Animals also were tested on a standard pharmacodynamics rotation test known to be a sensitive and reliable measure of dopamine activity in the brain. […] These doses were chosen for this test because they represent the doses of L-Dopa shown to produce maximal efficacy in the previous functional tests. Following dosing, animals were placed into a cylindrical Plexiglas bucket. […] Animals were also tested for rotation behavior with and without pre-treatment with carbidopa. […] Because the dopamine depletions are unilateral, the uninjected side remained intact and still able respond to changes in dopamine activity. When these animals were injected with a dopamine agonist (i.e. L-Dopa) brain dopamine activity was stimulated preferentially on the intact side. […] The onset and number of rotations provided a measure of both the time course as well as the extent of increased dopamine activity.

in vivo [8] = conditions: Sprague Dawley, rat, 7 mg powder

CNS(=O)(=O)Cc1ccc2[nH]cc(CCN(C)C)c2c1 [sumatriptan]
efficacy rate (migraine; administered intravenously (IV)): 90%
efficiency rate (migraine; oral form): approximately 60%

Cc1nnc2n1-c1ccc(Cl)cc1C(c1ccccc1Cl)=NC2 [triazolam]
solubility in alcohol ([1]; alcohol): soluble
solubility in water ([1]; water): poorly soluble

Cc1ccc(-c2nc3ccc(C)cn3c2CC(=O)N(C)C)cc1 [zolpidem]
Tmax ([2]; 5 mg tablet): 1.6 h
½ Life ([2]; 5 mg tablet): 2.6 h
time to peak plasma levels ([2]; in vivo): about 2 hours

N[C@@H](Cc1ccc(O)c(O)c1)C(=O)O [L-Dopa, levodopa]
concentration at 2 min (in vivo [3]): 5000 ng/mL
bioavailability (in vivo [3]): ~75%
bioavailability at 15 min (in vivo [3]): 38%
bioavailability at 60 min (in vivo [3]): 62%
concentration at 2 min (in vivo [3]; po): 1000 ng/mL
bioavailability (in vivo [3]; po): 33%
bioavailability at 15 min (in vivo [3]; po): 9%
bioavailability at 60 min (in vivo [3]; po): 24%
difference in drug required for equivalent efficacy, oral vs pulmonary ([4]; 30 mg/kg oral vs 1 mg pulmonary, normalized by body weight): ~10 fold
time of maximal effects ([4]; oral 20 mg/kg): 60 min
time of peak performance ([4]; oral 30 mg/kg): 1 to 2 h
time to improved performance with impaired limb ([4]; oral 30 mg/kg): ≤ 30 min
lowest dose with significant improvements ([4]; pulmonary): 0.5 mg
time of peak benefits ([4]; pulmonary, highest dose tested): 15 to 30 min
time to significant improvements ([4]; pulmonary, highest dose tested): ≤ 10 min
time of maximal effects ([5]; oral 30 mg/kg): ≤ 60 min
time to improved performance ([5]; oral 30 mg/kg): ≤ 30 min
lowest dose with statistically significant improvements ([5]; pulmonary): 0.5 mg
time of peak benefits ([5]; pulmonary): 15 to 30 min
time to significant improvements ([5]; pulmonary): ≤ 10 min
time of maximal effects ([6]; oral 30 mg/kg): ≤ 60 min
time to improved performance ([6]; oral 30 mg/kg): ≤ 30 min
lowest dose with statistically significant (p<0.05) improvements ([6]; pulmonary): 1.0 mg
time of peak benefits ([6]; pulmonary): 15 to 30 min
time to significant improvements ([6]; pulmonary): ≤ 10 min
time of peak rotations ([7]; oral 30 mg/kg): approximately 30 minutes
rotations during the first 10-15 minutes ([7]; oral 30 mg/kg, carbidopa pre-treatment): < 5 rotations/animal
time of peak rotations ([7]; pulmonary 2 mg total): 25 to 30 min
rotations relative to oral delivery within the first 10-15 minutes ([7]; pulmonary 2 mg total vs oral 30 mg/kg): greater than 3 times

CC(C(=O)O)c1cccc(C(=O)c2ccccc2)c1 (centres unmarked) [Ketoprofen]
concentration at 5 min (in vivo [8]): 9600 ng/mL
concentration at 15 min (in vivo [8]): 7600 ng/mL
concentration at 30 min (in vivo [8]): 5500 ng/mL
concentration at 60 min (in vivo [8]): 4500 ng/mL
concentration at 120 min (in vivo [8]): 2400 ng/mL
concentration at 240 min (in vivo [8]): 1800 ng/mL
concentration at 360 min (in vivo [8]): 1800 ng/mL
concentration at 480 min (in vivo [8]): 1300 ng/mL
concentration at 5 min (in vivo [8]; po): 1700 ng/mL
concentration at 15 min (in vivo [8]; po): 2100 ng/mL
concentration at 30 min (in vivo [8]; po): 1900 ng/mL
concentration at 60 min (in vivo [8]; po): 2000 ng/mL
concentration at 120 min (in vivo [8]; po): 1700 ng/mL
concentration at 240 min (in vivo [8]; po): 1400 ng/mL
concentration at 360 min (in vivo [8]; po): 1000 ng/mL
concentration at 480 min (in vivo [8]; po): 1000 ng/mL
Tmax via the oral route ([2]; oral): about 90 min
